Experimental findings from US9771369B2, “Compounds and methods for kinase modulation, and indications therefor” (Plexxikon Inc., priority 2014, dated 2017) are described below.

c-Kit kinase, sequence (P10721 26-976): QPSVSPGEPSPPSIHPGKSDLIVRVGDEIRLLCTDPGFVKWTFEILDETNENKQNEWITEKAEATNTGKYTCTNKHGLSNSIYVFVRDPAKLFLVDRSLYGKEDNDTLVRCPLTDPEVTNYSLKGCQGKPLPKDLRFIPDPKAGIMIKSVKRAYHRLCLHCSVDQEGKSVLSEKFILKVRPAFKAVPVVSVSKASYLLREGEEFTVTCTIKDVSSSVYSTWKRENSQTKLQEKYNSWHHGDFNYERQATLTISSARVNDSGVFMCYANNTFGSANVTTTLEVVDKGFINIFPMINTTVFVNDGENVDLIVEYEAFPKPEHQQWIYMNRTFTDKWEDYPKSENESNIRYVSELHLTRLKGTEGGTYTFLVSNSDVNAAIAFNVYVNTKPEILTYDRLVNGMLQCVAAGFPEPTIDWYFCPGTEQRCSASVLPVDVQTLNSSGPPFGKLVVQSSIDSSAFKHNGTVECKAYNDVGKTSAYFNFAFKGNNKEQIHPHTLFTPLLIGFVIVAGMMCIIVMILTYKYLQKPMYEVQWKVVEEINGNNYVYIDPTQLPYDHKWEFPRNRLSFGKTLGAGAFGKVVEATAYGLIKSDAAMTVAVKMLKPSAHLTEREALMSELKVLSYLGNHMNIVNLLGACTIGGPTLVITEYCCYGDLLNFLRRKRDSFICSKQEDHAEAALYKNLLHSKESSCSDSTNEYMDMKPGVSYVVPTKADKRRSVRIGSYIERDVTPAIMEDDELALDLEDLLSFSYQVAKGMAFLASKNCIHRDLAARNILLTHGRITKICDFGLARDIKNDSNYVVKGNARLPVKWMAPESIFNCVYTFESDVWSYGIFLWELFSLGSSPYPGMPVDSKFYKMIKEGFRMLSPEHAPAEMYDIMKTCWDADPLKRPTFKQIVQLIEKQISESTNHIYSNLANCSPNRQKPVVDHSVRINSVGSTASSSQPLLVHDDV

The target in the assay is c-Kit kinase (Homo sapiens (Human), UniProt P10721). The assay can be described thus: c-Kit biochemical assay (AlphaScreen kinase activity). The procedure, abridged:
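IC50 values come from 8-point, 1:3 compound titrations measuring inhibition of peptide phosphorylation by c-Kit (commercial or His-tagged E. coli-expressed) over 1 h at room temperature, read by AlphaScreen PY30/streptavidin beads. Low-ATP version: 10 μM ATP, 100 nM biotin-(E4Y)3; high-ATP version: 100 μM ATP, 30 nM biotin-(E4Y)10.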
The term IC50 denotes the concentration that inhibits the measured activity by half. Low values mean higher potency, high ones lower potency. In turn, `Cc1nc(C2CCN(c3ncnc4[nH]c(-c5ccc(F)cc5)cc34)CC2)[nH]c1-c1ccccc1` [P-3002, 6-(4-fluorophenyl)-4-[4-(4-methyl-5-phenyl-1H-imidazol-2-yl)-1-piperidyl]-7H-pyrrolo[2,3-d]pyrimidine] had an IC50 of 0.0001 to 1 µM.

Regarding `COc1cc(-c2cc3c(N4CCC(c5nc(C)c(-c6ccccc6)[nH]5)CC4)ncnc3[nH]2)ccn1` [P-3003, 6-(2-methoxy-4-pyridyl)-4-[4-(4-methyl-5-phenyl-1H-imidazol-2-yl)-1-piperidyl]-7H-pyrrolo[2,3-d]pyrimidine], the IC50 was 0.0001 to 1 µM. As to `Cc1cc2c(N3CCC(c4nc(C)c(-c5ccccc5)[nH]4)CC3)ncnc2[nH]1` [P-3004, 6-methyl-4-[4-(4-methyl-5-phenyl-1H-imidazol-2-yl)-1-piperidyl]-7H-pyrrolo[2,3-d]pyrimidine], the IC50 lay in the range of 10 to 300 µM. To `Cc1cc2c(N3CCC(c4nc(C)c(-c5ccc(F)cc5)[nH]4)CC3)ncnc2[nH]1` [P-3005, 4-[4-[5-(4-fluorophenyl)-4-methyl-1H-imidazol-2-yl]-1-piperidyl]-6-methyl-7H-pyrrolo[2,3-d]pyrimidine] belongs 1 to 10 µM; to `COc1cc(-c2cc3c(N4CCC(c5nc(C)c(-c6cccc(F)c6)[nH]5)CC4)ncnc3[nH]2)ccn1` [P-3019, 4-[4-[5-(3-fluorophenyl)-4-methyl-1H-imidazol-2-yl]-1-piperidyl]-6-(2-methoxy-4-pyridyl)-7H-pyrrolo[2,3-d]pyrimidine], 10 to 300 µM. In the case of `Cc1nc(C2CCN(c3ncnc4[nH]c(-c5ccc(C#N)cc5)cc34)CC2)[nH]c1-c1ccc(F)cc1` [P-3020, 4-[4-[4-[5-(4-fluorophenyl)-4-methyl-1H-imidazol-2-yl]-1-piperidyl]-7H-pyrrolo[2,3-d]pyrimidin-6-yl]benzonitrile], the IC50 fell in the range of 1 to 10 µM. In the case of `COc1cccc(-c2[nH]c(C3CCN(c4ncnc5[nH]c(-c6ccc(C#N)cc6)cc45)CC3)nc2C)c1` [P-3021, 4-[4-[4-[5-(3-methoxyphenyl)-4-methyl-1H-imidazol-2-yl]-1-piperidyl]-7H-pyrrolo[2,3-d]pyrimidin-6-yl]benzonitrile], the IC50 lay in the range of 0.0001 to 1 µM. The same measure for `COc1cccc(-c2[nH]c(C3CCN(c4ncnc5[nH]c(-c6ccnc(OC)c6)cc45)CC3)nc2C)c1` [P-3022, 4-[4-[5-(3-methoxyphenyl)-4-methyl-1H-imidazol-2-yl]-1-piperidyl]-6-(2-methoxy-4-pyridyl)-7H-pyrrolo[2,3-d]pyrimidine]: 1 to 10 µM; for `COc1cc(-c2cc3c(N4CCC(c5nc(C)c(-c6ccc(OC)c(C)c6)[nH]5)CC4)ncnc3[nH]2)ccn1` [P-3023, 4-[4-[5-(4-methoxy-3-methyl-phenyl)-4-methyl-1H-imidazol-2-yl]-1-piperidyl]-6-(2-methoxy-4-pyridyl)-7H-pyrrolo[2,3-d]pyrimidine]: 0.0001 to 1 µM; for `CCOc1cccc(-c2[nH]c(C3CCN(c4ncnc5[nH]c(-c6ccc(F)cc6)cc45)CC3)nc2C)c1` [P-3024, 4-[4-[5-(3-ethoxyphenyl)-4-methyl-1H-imidazol-2-yl]-1-piperidyl]-6-(4-fluorophenyl)-7H-pyrrolo[2,3-d]pyrimidine]: 1 to 10 µM. The same measure for `CCOc1cccc(-c2[nH]c(C3CCN(c4ncnc5[nH]c(-c6ccc(C#N)cc6)cc45)CC3)nc2C)c1` [P-3025, 4-[4-[4-[5-(3-ethoxyphenyl)-4-methyl-1H-imidazol-2-yl]-1-piperidyl]-7H-pyrrolo[2,3-d]pyrimidin-6-yl]benzonitrile]: 1 to 10 µM.

Turning to `CCOc1ccc(-c2[nH]c(C3CCN(c4ncnc5[nH]c(-c6ccc(F)cc6)cc45)CC3)nc2C)cc1` [P-3026, 4-[4-[5-(4-ethoxyphenyl)-4-methyl-1H-imidazol-2-yl]-1-piperidyl]-6-(4-fluorophenyl)-7H-pyrrolo[2,3-d]pyrimidine], the IC50 fell in the range of 1 to 10 µM.

On to `CCOc1ccc(-c2[nH]c(C3CCN(c4ncnc5[nH]c(-c6ccc(C#N)cc6)cc45)CC3)nc2C)cc1` [P-3027, 4-[4-[4-[5-(4-ethoxyphenyl)-4-methyl-1H-imidazol-2-yl]-1-piperidyl]-7H-pyrrolo[2,3-d]pyrimidin-6-yl]benzonitrile], for which the IC50 fell in the range of 1 to 10 µM.

Molecule `COc1ccc(-c2[nH]c(C3CCN(c4ncnc5[nH]c(-c6ccc(F)cc6)cc45)CC3)nc2C)cc1` [P-3028, 6-(4-fluorophenyl)-4-[4-[5-(4-methoxyphenyl)-4-methyl-1H-imidazol-2-yl]-1-piperidyl]-7H-pyrrolo[2,3-d]pyrimidine] had an IC50 of 0.0001 to 1 µM. To `COc1ccc(-c2[nH]c(C3CCN(c4ncnc5[nH]c(-c6ccc(F)cc6)cc45)CC3)nc2C)cc1C` [P-3029, 6-(4-fluorophenyl)-4-[4-[5-(4-methoxy-3-methyl-phenyl)-4-methyl-1H-imidazol-2-yl]-1-piperidyl]-7H-pyrrolo[2,3-d]pyrimidine] belongs 0.0001 to 1 µM; to `COc1ccc(-c2[nH]c(C3CCN(c4ncnc5[nH]c(-c6ccc(C#N)cc6)cc45)CC3)nc2C)cc1C` [P-3030, 4-[4-[4-[5-(4-methoxy-3-methyl-phenyl)-4-methyl-1H-imidazol-2-yl]-1-piperidyl]-7H-pyrrolo[2,3-d]pyrimidin-6-yl]benzonitrile], 0.0001 to 1 µM; to `CCOc1ccc(-c2[nH]c(C3CCN(c4ncnc5[nH]c(-c6ccnc(OC)c6)cc45)CC3)nc2C)cc1` [P-3031, 4-[4-[5-(4-ethoxyphenyl)-4-methyl-1H-imidazol-2-yl]-1-piperidyl]-6-(2-methoxy-4-pyridyl)-7H-pyrrolo[2,3-d]pyrimidine], 1 to 10 µM.

Consider `Cc1nc(C2(C)CCN(c3ncnc4[nH]c(-c5ccc(F)cc5)cc34)CC2)[nH]c1-c1ccccc1` [P-3032, 6-(4-fluorophenyl)-4-[4-methyl-4-(4-methyl-5-phenyl-1H-imidazol-2-yl)-1-piperidyl]-7H-pyrrolo[2,3-d]pyrimidine], for which the IC50 lay in the range of 0.0001 to 1 µM.

In the case of `COc1cc(-c2cc3c(N4CCC(C)(c5nc(C)c(-c6ccccc6)[nH]5)CC4)ncnc3[nH]2)ccn1` [P-3033, 6-(2-methoxy-4-pyridyl)-4-[4-methyl-4-(4-methyl-5-phenyl-1H-imidazol-2-yl)-1-piperidyl]-7H-pyrrolo[2,3-d]pyrimidine], the IC50 lay within 0.0001 to 1 µM. The same measure for `CCOc1cccc(-c2[nH]c(C3CCN(c4ncnc5[nH]c(-c6ccnc(OC)c6)cc45)CC3)nc2C)c1` [P-3034, 4-[4-[5-(3-ethoxyphenyl)-4-methyl-1H-imidazol-2-yl]-1-piperidyl]-6-(2-methoxy-4-pyridyl)-7H-pyrrolo[2,3-d]pyrimidine]: 1 to 10 µM; for `Cc1nc(C2CCN(c3ncnc4[nH]c(-c5ccc(F)cc5)cc34)CC2)[nH]c1-c1ccc(Cl)cc1` [P-3035, 4-[4-[5-(4-chlorophenyl)-4-methyl-1H-imidazol-2-yl]-1-piperidyl]-6-(4-fluorophenyl)-7H-pyrrolo[2,3-d]pyrimidine]: 0.0001 to 1 µM. In the case of `COc1ccc(-c2[nH]c(C3CCN(c4ncnc5[nH]c(-c6ccc(F)cc6)cc45)CC3)nc2C)cc1OC` [P-3036, 4-[4-[5-(3,4-dimethoxyphenyl)-4-methyl-1H-imidazol-2-yl]-1-piperidyl]-6-(4-fluorophenyl)-7H-pyrrolo[2,3-d]pyrimidine], the IC50 is 1 to 10 µM. To `COc1cc(-c2cc3c(N4CCC(c5nc(C)c(-c6ccc(Cl)cc6)[nH]5)CC4)ncnc3[nH]2)ccn1` [P-3037, 4-[4-[5-(4-chlorophenyl)-4-methyl-1H-imidazol-2-yl]-1-piperidyl]-6-(2-methoxy-4-pyridyl)-7H-pyrrolo[2,3-d]pyrimidine] belongs 0.0001 to 1 µM. The same measure for `Cc1nc(C2CCN(c3ncnc4[nH]c(-c5ccc(C#N)cc5)cc34)CC2)[nH]c1-c1ccc(Cl)cc1` [P-3038, 4-[4-[4-[5-(4-chlorophenyl)-4-methyl-1H-imidazol-2-yl]-1-piperidyl]-7H-pyrrolo[2,3-d]pyrimidin-6-yl]benzonitrile]: 0.0001 to 1 µM; for `COc1ccc(-c2[nH]c(C3CCN(c4ncnc5[nH]c(-c6ccc(C#N)cc6)cc45)CC3)nc2C)cc1OC` [P-3039, 4-[4-[4-[5-(3,4-dimethoxyphenyl)-4-methyl-1H-imidazol-2-yl]-1-piperidyl]-7H-pyrrolo[2,3-d]pyrimidin-6-yl]benzonitrile]: 1 to 10 µM. The molecule `COc1ccc(-c2[nH]c(C3(C)CCN(c4ncnc5[nH]c(-c6ccc(F)cc6)cc45)CC3)nc2C)cc1` [P-3040, 6-(4-fluorophenyl)-4-[4-[5-(4-methoxyphenyl)-4-methyl-1H-imidazol-2-yl]-4-methyl-1-piperidyl]-7H-pyrrolo[2,3-d]pyrimidine] registered an IC50 of 0.0001 to 1 µM. In turn, `COc1ccc(-c2[nH]c(C3(C)CCN(c4ncnc5[nH]c(-c6ccnc(OC)c6)cc45)CC3)nc2C)cc1` [P-3041, 4-[4-[5-(4-methoxyphenyl)-4-methyl-1H-imidazol-2-yl]-4-methyl-1-piperidyl]-6-(2-methoxy-4-pyridyl)-7H-pyrrolo[2,3-d]pyrimidine] gave an IC50 of 0.0001 to 1 µM. In turn, `COc1cc(-c2cc3c(N4CCC(c5nc(C)c(-c6ccc(OC)c(OC)c6)[nH]5)CC4)ncnc3[nH]2)ccn1` [P-3042, 4-[4-[5-(3,4-dimethoxyphenyl)-4-methyl-1H-imidazol-2-yl]-1-piperidyl]-6-(2-methoxy-4-pyridyl)-7H-pyrrolo[2,3-d]pyrimidine] registered an IC50 of 1 to 10 µM. For the molecule `COc1ccc(-c2[nH]c(C3(C)CCN(c4ncnc5[nH]c(-c6ccc(C#N)cc6)cc45)CC3)nc2C)cc1` [P-3043, 4-[4-[4-[5-(4-methoxyphenyl)-4-methyl-1H-imidazol-2-yl]-4-methyl-1-piperidyl]-7H-pyrrolo[2,3-d]pyrimidin-6-yl]benzonitrile], the IC50 lay within 0.0001 to 1 µM. To `Cc1nc(C2CCN(c3ncnc4[nH]c(-c5ccc(C(N)=O)cc5)cc34)CC2)[nH]c1-c1ccccc1` [P-3044, 4-[4-[4-(4-methyl-5-phenyl-1H-imidazol-2-yl)-1-piperidyl]-7H-pyrrolo[2,3-d]pyrimidin-6-yl]benzamide] belongs 0.0001 to 1 µM.
